Laboratory results as given in patent US9468225B2, “Oral compositions” (Symrise AG, priority 2013, dated 2016).

Columns and labels:
[1] = test system: human neuroblastoma cells (SH-SY5Y); experiment: Serotonin release by SH-SY5Y cells after 3-minute stimulation with alkamides (Serotonin-ELISA, normalized to DNA); format: cell-based; conditions: for Serotonin release T/C [%]: relative to EtOH control, 3 min stimulation
Method: (§1) The cell model used for the release of the neurotransmitters dopamine and serotonin are human neuroblastoma cells (SH-SY5Y, ATCC Number CRL-2266). Cultivation is performed at 37° C. and with a 5% CO2 content using a mixture containing at equal parts Eagle's Minimum Essential Medium (MEM) and F12 Medium (each having 10% FBS and 1% Penicillin/Streptomycin). To measure the release of dopamine and serotonin, the cells are harvested with trypsin and seeded, after a vitality check using trypan blue tests, in a defined cell number in 35 mm cell culture dishes.
After a 3-minute stimulation of 1.25*10^6 human neuroblastoma cells (SH-SY5Y) with 300 μL Krebs-Ringer-HEPES buffer, 0.1% ascorbic acid, pH 6.2, with, or without, the addition of an alkamide (trans-Pellitorine, dihydropellitorine, spilanthol, wherein when adding the alkamide in concentrations of 0.001 μM, 0.1 μM 1 μM and 10 μM within the Krebs-Ringer-HEPES buffer is adjusted), the serotonin content is detected by means of an enzyme-based method of detection (Serotonin-ELISA sensitive, DLD Diagnostica, Hamburg, Germany). The cells are lysed with a buffer containing sodium lauryl sarcosinate and the DNA content is detected by means of a NanoQuant plate (Tecan, Ménnendorf, Switzerland) to normalize serotonin release.
FIGS. 1a and 1b represent the release of serotonin after incubation with t-pellitorine (2) (FIG. 1A) in concentrations of 0.001 μM, 0.1 μM, 1 μM and 10 μM or other alkamides (FIG. 1B: 1=t-pellitorine, 2=dihydropellitorine, 3=spilanthol)). Results are represented in % relative to control (buffer with 0.1% ethanol) n=3, tR=2. Significant differences of control treatment were tested using a one-way ANOVA with a subsequent Holm-Sidak post hoc test and marked according to the following pattern: *p≦0.05; **p.≦0.01; ***p≦0.001.

[2] = test system: human neuroblastoma cells (SH-SY5Y); experiment: Dopamine release by SH-SY5Y cells after 3-minute stimulation with trans-pellitorine (Dopamin-ELISA, normalized to DNA); format: cell-based; conditions: for Dopamine release T/C [%]: relative to EtOH control, 3 min stimulation
Method: as §1
After a 3-minute stimulation of 1.25*10^6 of human neuroblastoma cells (SH-SY5Y) with 350 μL Krebs-Ringer-HEPES Puffer (1), pH 5, with or without the addition of trans-pellitorine (2) in concentrations of 0.001 μM, 0.1 μM, 1 μM and 10 μM the supernatant is acidified with 1 N HCl and the dopamine content is determined by means of an enzyme-based method of detection (Dopamin-ELISA, DLD Diagnostica, Hamburg, Germany). The cells are lysed with a buffer containing sodium lauryl sarcosinate and the DNAN content is determined by means of a NanoQuant plant (Tecan, Ménnendorf, Switzerland) for normalization of dopamine release. During an ethanol control (EtOH control) no trans-pellitorine is added to the Krebs-Ringer-HEPES buffer, but ethanol is added to the buffer such that a 0.1% ethanolic Krebs-Ringer-HEPES buffer solution is obtained.
FIG. 2 represents the release of dopamin after incubation with t-pellitorine (2) in concentrations of 0.001 μM, 0.1 μM, 1 μM and 10 μM. The results are represented in a […] expressed in percent (buffer with 0.1% ethanol). n=3, tR=2. Significant differences between the treatments and control were tested using a one-way ANOVA with a subsequent Holm-Sidak post hoc test and marked according to the following pattern: *p≦0.05; **p.≦0.01; ***p≦0.001.

3T3-L1 cells [3] = experiment: Fatty acid uptake (BODIPY fatty acid) in 3T3-L1 adipocytes; format: cell-based, murine; conditions: for Fatty acid uptake T/C [%]: 30 min preincubation, area below the curve over 60 min vs ethanol control
Method: (§2) The cell model used for short-term uptake of free fatty acids and long-term lipid accumulation in the adipocytes are murine fibroblasts (3T3-L1, ATTC Number CL-173) after the cells differentiated to form adipocytes. 3T3-L1 fibroblasts are cultivated at 37° C. and a 5% CO2 content with Dulbecco's Modified Eagle Medium (DMEM) having 10% FBS, 4% L-Glutamin and 1% Penicillin/Streptomycin (=basal medium). Adipocyte differentiation occurs two days after reaching confluence by adding 10 μg/L Insulin, 1 μM dexamethasone and 0.5 mM Isobutylmethylxanthin into the culture medium (=differentiation medium). After two days of cultivation in differentiation medium the adipocytes are allowed to mature for two further days by adding 10 μg/L insulin into the culture medium (=maturation medium). After having spent between three and five days in basal medium, the adipocytes are optimally differentiated and show by inclusion of lipid droplets the phenotype that is typical for adipocytes. Human colon cell line CaCo-2 (ATCC Number HTB-37) is used as a cell model for the uptake of free fatty acids by the small intestine after they have differentiated to form a phenotype corresponding to enterocytes. CaCo-2 cells are cultivated at 37° C. with a 5% CO2 content with Dulbecco's Modified Eagle Medium (DMEM) with 10% FBS, 2% L-glutamin and 1% penicillin/streptomycin. Enterocyte differentiation is performed by cultivating the cells in a period of 18 days after they reach confluence.
After differentiation of 3T3-L1 fibroblasts to form adipocytes, 65000 cells per well are seeded in a 96 well plate and incubated at 37° C. for four hours with basal medium (DMEM+10% fetal bovine serum) and then incubated for an hour with serum-free medium. The cells were pre-treated with 0.1 μM, 1 μM and 10 μM t-pellitorine for 30 minutes. The uptake of free fatty acids into the cells was measured by means of the fluorescence-marked fatty acid BODIPY® (QBT Fatty Acid Uptake Corporation, Germany) with a fluorescence microplate reading device (Tecan, Ménnendorf, Switzerland) every 20 seconds for a period of 60 minutes.
The results are represented as an area below the curve after measuring of 60 minutes in comparison with control (1, buffer with 0.1% Ethanol). n=3, tR=2-3. Significant differences between the treatment and control were tested by means of an one-way ANOVA followed by a Holm-Sidak post hoc test and marked according to the following pattern: *p≦0.05; **p.≦0.01; ***p≦0.001

3T3-L1 cells [4] = experiment: Long time lipid accumulation (Oil-Red O) in 3T3-L1 adipocytes; format: cell-based, murine; conditions: 10 days treatment, vs ethanol control
Method: as §2, with “confluence. After differentiation of the 3T3-L1 fibroblasts to form adipocytes the cells are treated for 10 days with trans-pellitorine in concentrations of 0.001 μM, μM 0.1 μM, 1 μM and 10 μM and a final concentration of 10 μg/L insulin. […] The dye Oil-Red 0 is subsequently removed by means of 100% isopropanol, and absorption of the Oil-Red 0 solution, which behaves proportionally to the lipid droplets of the cells, was determined by means of a microplate reading device (Tecan, Ménnendorf, Switzerland). […]” for “confluence.”

[5] = test system: differentiated CaCo-2 cells; experiment: Fatty acid uptake (BODIPY fatty acid) in differentiated CaCo-2 cells; format: cell-based, human; conditions: for Fatty acid uptake T/C [%]: 30 min preincubation, area below the curve over 60 min vs ethanol control
Method: as §2, with “confluence. After differentiation of the CaCo-2 cells to form an enterocyte phenotype, the cells are incubated with serum-free medium for an hour. Subsequently the cells are pre-treated with 0.1 μM, 1 μM and 10 μM t-pellitorine for 30 minutes and the free fatty acid uptake into the cells was measured by means of the fluorescence marked fatty acid BODIPY® (QBT Fatty Acid Up-take Corporation, Germany) at a fluorescence microplate reading device (Tecan, Ménnendorf, Switzerland) every 20 seconds for a period of 60 minutes. […] The results are represented as an area below the curve after measuring for 60 minutes in comparison to control (1, buffer with 0.1% ethanol). n=3, tR=2-3. Significant differences between the treatment and control were tested by means of a one-way ANOVA followed by a Holm-Sidak post hoc test and marked according to the following pattern: *p≦0.05; **p.≦0.01; ***p≦0.001” for “confluence.”

In the case of `CCCCCCC/C=C/C(=O)NCC(C)C` [Dihydropellitorine, 2E-decenoic acid-N-isobutylamide], the “Serotonin release T/C [%]” value ([1]; 0.001 μM) is reported as 140.9%, the “Serotonin release T/C [%]” value ([1]; 0.1 μM) is reported as 87.41% and the “Serotonin release T/C [%]” value ([1]; 1 μM) is reported as 124.3%. For the same molecule, the “Serotonin release T/C [%]” value ([1]; 10 μM) was 144.5%.
With `C/C=C/C=C\CC/C=C/C(=O)NCC(C)C` [Spilanthol, 2E,6Z,8E-decatrienoic acid N-isobutylamide] the “Serotonin release T/C [%]” value ([1]; 0.001 μM) was 105.6%, the “Serotonin release T/C [%]” value ([1]; 0.1 μM) was 129.9% and the “Serotonin release T/C [%]” value ([1]; 1 μM) was 103.8%. For the same molecule, the “Serotonin release T/C [%]” value ([1]; 10 μM) was 91.77%.
In the case of `CCCCC/C=C/C=C/C(=O)NCC(C)C` [trans-pellitorine, 2E,4E-decadienic acid-N-isobutylamide], the “Dopamine release T/C [%]” value ([2]; 0.001 μM) is reported as 99.68%, the “Dopamine release T/C [%]” value ([2]; 0.1 μM) is reported as 182.7% and the “increase of dopamine release” value ([2]; 100 nM, SH-SY5Y cells) is reported as 80%. The “Dopamine release T/C [%]” value ([2]; 1 μM) was 106.8%, the “Dopamine release T/C [%]” value ([2]; 10 μM) was 127.3% and the “Fatty acid uptake T/C [%]” value (3T3-L1 cells [3]; 0.1 μM) was 93.84%. For the same molecule, the “Fatty acid uptake T/C [%]” value (3T3-L1 cells [3]; 1 μM) was 96.63%, the “Fatty acid uptake T/C [%]” value (3T3-L1 cells [3]; 10 μM) was 91.95% and the “reduction of fatty acid uptake in adipocytes” value (3T3-L1 cells [3]; preincubation with 10 μM) was 9%. For the same molecule, the “Serotonin release T/C [%]” value ([1]; 0.001 μM) was 105.3%, the “Serotonin release T/C [%]” value ([1]; 0.1 μM) was 140.2% and the “increase of the release of serotonin” value ([1]; 100 nM, SH-SY5Y cells) was 40%. The “Serotonin release T/C [%]” value ([1]; 1 μM) was 128.8%, the “Serotonin release T/C [%]” value ([1]; 10 μM) was 93.02% and the “Lipid accumulation T/C [%]” value (3T3-L1 cells [4]; 0.001 μM) was 94.60%. For the same molecule, the “Lipid accumulation T/C [%]” value (3T3-L1 cells [4]; 0.1 μM) was 92.94%, the “Lipid accumulation T/C [%]” value (3T3-L1 cells [4]; 1 μM) was 93.46% and the “Fatty acid uptake T/C [%]” value ([5]; 0.1 μM) was 107.8%. For the same molecule, the “Fatty acid uptake T/C [%]” value ([5]; 1 μM) was 98.7%, the “Fatty acid uptake T/C [%]” value ([5]; 10 μM) was 97.8% and the “Fatty acid uptake T/C [%]” value ([5]; 100 μM) was 86.0%. The “reduction of free fatty acid uptake in an enterocyte model” value ([5]; preincubation with 100 μM, 30 minutes) was 14%.
